Laboratory results taken from patent US9975944B2, “Synthetic peptides for the treatment of autoimmune diseases” (TEL HASHOMER MEDICAL RESEARCH INFRASTRUCTURE AND SERVICES …, priority 2013, dated 2018).
Square brackets hold non-standard residues; d marks the D form. Ends that are not written are not given here. Cit = NC(=O)NCCC[C@H](N)C(=O)O

Experiments:
[1] = system: TGF-β; assay: TGF-β gene expression in peripheral blood mononuclear cells of RA patients, real-time PCR; assay type: cell-based, human; details: for mean expression levels of TGF-β: PBMC from 6 RA patients, compared with matched non-citrullinated peptide; for TGF-β gene expression level: PBMC of RA patients, 24 h incubation, peptide 0.25 or 1.25 μg/ml, compared with control non-citrullinated peptides
Excerpt: (§1) Citrullinated peptide derived from filaggrin, set forth in SEQ ID NO: 3, (HQCHQESTCitGRSRGRCGRSGS) designated Fil-Cit and citrullinated peptide derived from β-fibrinogen sequence (designated β-Fib-Cit) set forth in SEQ ID NO: 2 (CitPAPPPISGGGYCitACit) were examined for their ability to immunomodulate cytokine expression in peripheral blood mononuclear cells from rheumatoid arthritis patients. Matched non-citrullinated forms of those peptides served as control, and were designated Fil-NC and β-Fib-NC, respectively. All rheumatoid arthritis patients who participated in the study signed an informed consent and the research was approved by the Sheba Helsinki committee (approval No 9247-12-SMC). All procedures were conducted according to good clinical practice (GCP) regulations.
(§2) Peripheral blood mononuclear cells were isolated from blood samples using Ficoll-Paque density gradient centrifugation. The extracted cells were cultivated in the presence of Fil-Cit (0.25 μg/ml or 1.25 μg/ml), β-Fib-Cit (0.25 μg/ml or 1.25 μg/ml) and the control matched peptides. Total RNA was extracted 24 h after incubation with the peptides.
To further investigate the ex vivo effects of the citrullinated peptides on TGF-β expression, peripheral blood mononuclear cells obtained from 6 rheumatoid arthritis patients were cultured in the presence of citrullinated or control peptides. […] Up-regulation was likewise indicated in peripheral blood mononuclear cells incubated with Fil-Cit.

[2] = system: IFN-γ; assay: IFN-γ gene expression in peripheral blood mononuclear cells of RA patients, real-time PCR; assay type: cell-based, human; details: PBMC of RA patients, 24 h incubation, peptide 0.25 or 1.25 μg/ml, compared with control non-citrullinated peptides
Excerpt: as §1, §2

[3] = system: TNF-α; assay: TNF-α gene expression in peripheral blood mononuclear cells of RA patients, real-time PCR; assay type: cell-based, human; details: PBMC of RA patients, 24 h incubation, peptide 0.25 or 1.25 μg/ml, compared with control non-citrullinated peptides
Excerpt: as §1, §2

[4] = system: IL-17; assay: IL-17 gene expression in peripheral blood mononuclear cells of RA patients, real-time PCR; assay type: cell-based, human; details: PBMC of RA patients, 24 h incubation, peptide 0.25 or 1.25 μg/ml, compared with control non-citrullinated peptides
Excerpt: as §1, §2

[5] = system: CD4+CD25+Foxp3+ T cells; assay: Regulatory T cell proportion in PBMC of RA patients, FACS; assay type: cell-based, human; details: 48 hours
Procedure: Given the observed immunomodulation of cytokines following incubation of peripheral blood mononuclear cells obtained from rheumatoid arthritis patients with citrullinated peptides, the citrullinated peptides were tested for their ability to exert an effect on the T regulatory population proportion. Peripheral blood mononuclear cells of rheumatoid arthritis patients were cultured in the presence of 1.25 μg/ml of the peptides (Fil-Cit, β-Fib-Cit, and Cit-ME; FIGS. 6A, 6B and 6E, respectively, and Fil-NC, β-Fib-NC and Non-Cit-ME; FIGS. 6C, 6D and 6G, respectively), and Infliximab (FIG. 6F) for 48 hours. Cells cultured with medium devoid of the peptides and Infliximab served as control (FIG. 6H). Thereafter, cells were stained for the expression of CD4, CD25, and FoxP3 and analyzed by FACS. […] Mean percentage of CD4^+CD25^+Foxp3^+ T cells in the presence of Infliximab was increased by 14% as compared to medium (FIG. 6F and FIG. 6H, respectively). Thus, citrullinated peptides are able to induce the expansion of the T regulatory cell population.

[6] = system: pathogenic Th17 cells; assay: Pathogenic Th17 cell proportion in PBMC of RA patients, FACS; assay type: cell-based, human; details: 48 hours
Procedure: To assess ability of the citrullinated peptides to affect the pathogenic Th17 cells population proportion, peripheral blood mononuclear cells of rheumatoid arthritis patients were cultured in the presence of citrullinated peptides, non-citrullinated peptides and Infliximab for 48 hours. In the last 4 hours phorbol12-myristate 13-acetate (PMA), ionomycin and brefeldin A were added to the culture. Thereafter cells were stained with antibodies against CD3 and IL-17. As shown in FIGS. 7A-7H, significant down-regulation in the mean percentage of pathogenic Th17 cells was detected following incubation with the citrullinated peptides: decrease of 21% (Fil-Cit; E), 5% (β-Fib-Cit; F), and 26% (Cit-ME; G) as compared with the non-citrullinated matched peptides (FIG. 7A-7C, respectively). Mean percentage of pathogenic Th17 cells in the presence of Infliximab was decreased by 48% (FIG. 7H) as compared to medium (FIG. 7D).

[7] = system: T cells; assay: T cells apoptosis in PBMC of RA patients, annexin V/PI FACS; assay type: cell-based, human; details: 24 hours, gated on PI negative cells
Procedure: To assess the ability of the citrullinated peptides to affect T cells apoptosis, peripheral blood mononuclear cells of rheumatoid arthritis patients were cultured in the presence of citrullinated, non-citrullinated peptides and Infliximab for 24 hours. Cells were double-stained for annexin V-fluorescein isothiocyanate (FITC) and PI-PE (apoptosis/necrosis markers) and analyzed by FACS. The results in FIG. 8 are presented after gating for PI negative cells (live cells). The β-Fib-Cit and Cit-ME (FIGS. 8A and 8B, respectively) induced T cells apoptosis (by 20% and 18%, respectively) as compared with the non-citrullinated peptides Non-Cit-β-Fib (FIG. 8D) and Non-Cit-ME (FIG. 8E). Infliximab induced apoptosis by 28% (FIG. 8C) as compared with the medium control (FIG. 8F).

[8] = system: TNF-α; assay: TNF-α gene expression in mononuclear cells derived from synovial fluid of RA patients, real-time PCR; assay type: cell-based, human; details: compared to medium alone (control)
Procedure: To assess the effect of the Cit-ME peptide (SEQ ID NO: 1) on inflammatory related genes expression, peripheral blood mononuclear cells derived from synovial fluid rheumatoid arthritis patients were incubated with the Cit-ME multi-epitope citrullinated peptide for 24 h. The effect of the peptide on gene expression was compared also to the effect of infliximab, a TNF-α blocker, which is an antirheumatic drug that acts as an anti-inflammatory compound. […] Results were determined by real-time PCR.

[9] = system: AIA rats; assay: Adjuvant-Induced Arthritis (AIA) in rats, paw swelling and clinical signs; assay type: in vivo, rat; details: AIA rats, 8 subcutaneous injections of 300 μg per rat on alternate days from day 7
[10] = system: AIA rats; assay: Histological signs of arthritis in ankle joints of AIA rats; assay type: in vivo, rat; details: day 28 post disease induction, H&E, untreated 1.75±0.41
Procedure: To evaluate the histological signs of arthritis, rats were sacrificed and ankle joints were collected on day 28 post disease induction. The joints were fixed immediately for 24 hours in 4% paraformaldehyde, then decalcified in rapid bone decalcifier (RDO; Apex Engineering, Plainfield, Ill., USA) for 6 hours at room temperature, and further fixed in 4% paraformaldehyde before embedding in paraffin. Sections (5 μm thick) were rehydrated in a graded ethanol series and stained with haematoxylin & eosin (H&E). FIGS. 11A to 11C show representative H&E stained joint tissue sections (magnification ×100). Arrowheads denote the infiltrated zones, scale bar=200 μm. The specimens were scored for severity of inflammation in the synovium, pannus formation, cartilage, and bone erosion. A close correlation between the clinical signs and the histopathological findings was found.

[11] = system: CD4+CD25+FoxP3+ regulatory T cells; assay: Regulatory T cells in splenocytes of AIA rats, FACS; assay type: in vivo, rat
Excerpt: Splenocytes from rats at day 28 post disease induction were stained with anti-CD4-FITC, anti-CD25-APC, and anti-Foxp3-PE (eBioscience) mAbs and analyzed by FACS. In representative outputs as shown in FIG. 12A-C, Regulatory T cells subpopulation was higher in Cit-ME treated rats (9%), compared to 7% and 6.2% in Non-Cit-ME peptide and untreated rats, respectively. Statistical analysis of the results is shown in FIG. 12D (Cit-ME n=9, Non-Cit-ME n=11, untreated rats n=7).

[12] = system: T cells derived from the spleen; assay: Apoptosis of T cells from the spleen of AIA rats, Annexin V/PI staining; assay type: in vivo, rat; details: gated for PI and CD4+, two independent experiments, control 13±1%
Procedure: To assess apoptosis of T cells derived from the spleen of treated rats, the Annexin V/PI staining method was preformed. FIGS. 14A-14C are representative histograms of cells treated with Cit-Me (FIG. 14A), non-Cit-Me (FIG. 14B) or untreated (FIG. 14C). The histograms present apoptosis measured by Annexin V^+. First, cells were gated for PI and CD4^+ and next analyzed for percentage of Annexin-V positive cells. […] A significant increase (p<0.01) in the mean apoptotic rate was determined in cells from the spleen of Cit-ME treated rats (19.5±1.8%) in comparison with Non-Cit-ME or control (13.8±1.3% and 13±1%, respectively).

[13] = 1.25 μg/ml peptide, compared with non-citrullinated matched peptide
[14] = PMA, ionomycin and brefeldin A in last 4 hours, compared with non-citrullinated matched peptide

Substance | mean expression levels of TGF-β [1] | TGF-β gene expression level [1] | IFN-γ gene expression level [2] | TNF-α gene expression level [3] | IL-17 gene expression level [4] | increase in mean percentage of CD4+CD25+Foxp3+ T cells [5, 13] [%] | decrease in mean percentage of pathogenic Th17 cells [6, 14] [%] | induction of T cells apoptosis ([7]; compared with matched non-citrullinated peptide) [%] | expression level of TNF-α [8] | increase in mean percentage of CD4+CD25+Foxp3+ T cells ([5]; compared to medium) [%] | decrease in mean percentage of pathogenic Th17 cells ([6]; compared to medium) [%] | induction of apoptosis ([7]; compared with the medium control) [%] | clinical score post immunization [9] | histological inflammatory score [10] | percentage of CD4+CD25+FoxP3+ regulatory T cells subset, statistical analysis ([11]; spleens of AIA rats, day 28, untreated 7.17±0.31) [%] | Regulatory T cells subpopulation, representative outputs ([11]; splenocytes of AIA rats, day 28 post disease induction, untreated 6.2%) [%] | mean apoptotic rate (Annexin-V positive cells) [12] [%]
CitPAPPPISGGGYCitACit ([Cit]PAPPPISGGGY[Cit]A[Cit]) [β-Fib-Cit] | significantly up-regulated | significantly up-regulated | down-regulated | down-regulated | down-regulated | 50 | 5 | 20 |  |  |  |  |  |  |  |  | 
HQCHQESTCitGRSRGRCGRSGS (HQCHQEST[Cit]GRSRGRCGRSGS; cysteine pairing not given here) [Fil-Cit, citrullinated peptide derived from filaggrin] | Up-regulation | significantly up-regulated | down-regulated | down-regulated | down-regulated | 56 | 21 |  |  |  |  |  |  |  |  |  | 
Infliximab: a TNF-α blocker, an antirheumatic drug that acts as an anti-inflammatory compound [reference compound] |  |  |  |  |  |  |  |  | downregulated | 14 | 48 | 28 |  |  |  |  | 
VRLRSSVESTRGRSRPAPPPARGLT [Non-Cit-ME] |  |  |  |  |  |  |  |  |  |  |  |  | Reduction in clinical score | 1.28±0.6 | 6.97±0.22 | 7 | 13.8±1.3
